According to US20200095236A1, “ANTIBACTERIAL COMPOUNDS” (FORGE THERAPEUTICS, INC., priority 2017, published 2020):
Converted amounts (≈) assume the structure as drawn. Like-named read-outs stand apart in the source and are kept apart here.

Assays:
[1] = tested on: TLR-4 activity of A. baumannii culture supernatants; experiment: TLR4 assay: TLR4 activity of A. baumannii culture supernatants in HEK-Blue-hTLR4 cells; assay type: cell-based; conditions: Acinetobacter baumannii, HEK-Blue hTLR4, read-out: % TLR-4 activity
Description: The TLR4 assay measures activity of diluted filter-sterilized A. baumannii culture supernatants. The assay was performed as described in Lin et al, Mbio, 2012. Briefly, A. baumannii was passaged to mid log-phase in the presence of Forge LpxC inhibitors. Culture supernatants were harvested, filter-sterilized and diluted 1:1000. TLR4 activity of the supernatants was tested using HEK-Blue-hTLR4 cells (Invivogen) that carry NF-kB and AP-1 driven SEAP (secreted embryonic alkaline phosphatase) reporter gene.
Exemplary TLR4 assay data (% TLR-4 activity) for compounds in embodiments of the disclosure.

[2] = molecular target: E. coli LpxC (Escherichia coli, UniProt P0A725); experiment: LpxC Binding Assay (Rapid Fire MS assay); assay type: biochemical
[3] = tested on: E. coli; experiment: Bacterial susceptibility testing, MIC by broth microdilution (CLSI); assay type: cell-based; conditions: Escherichia coli, read-out: E. coli MIC
Description: (§1) Minimal inhibitory concentrations (MIC) were determined by the broth microdilution method in accordance with the Clinical and Laboratory Standards Institute (CLSI) guidelines. In brief, organism suspensions were adjusted to a 0.5 McFarland standard to yield a final inoculum between 3×10^5 and 7×10^5 colony-forming units (CFU)/mL. Drug dilutions and inocula were made in sterile, cation adjusted Mueller-Hinton Broth (Beckton Dickinson). An inoculum volume of 100 μL was added to wells containing 100 μL of broth with 2-fold serial dilutions of drug. All inoculated microdilution trays were incubated in ambient air at 35° C. for 18-24 h. Following incubation, the lowest concentration of the drug that prevented visible growth (OD600 nm<0.05) was recorded as the MIC. Performance of the assay was monitored by the use of laboratory quality-control strains and levofloxacin, a compound with a defined MIC spectrum, in accordance with CLSI guidelines.

[4] = tested on: K. pneumoniae; experiment: as above; assay type: cell-based; conditions: Klebsiella pneumoniae, read-out: K. pneumoniae MIC
Description: as §1

[5] = tested on: S. aureus; experiment: as above; assay type: cell-based; conditions: Staphylococcus aureus, read-out: S. aureus MIC
Description: as §1

[6] = broth microdilution, 35° C., 18-24 h

Sequence of E. coli LpxC (P0A725 whole entry): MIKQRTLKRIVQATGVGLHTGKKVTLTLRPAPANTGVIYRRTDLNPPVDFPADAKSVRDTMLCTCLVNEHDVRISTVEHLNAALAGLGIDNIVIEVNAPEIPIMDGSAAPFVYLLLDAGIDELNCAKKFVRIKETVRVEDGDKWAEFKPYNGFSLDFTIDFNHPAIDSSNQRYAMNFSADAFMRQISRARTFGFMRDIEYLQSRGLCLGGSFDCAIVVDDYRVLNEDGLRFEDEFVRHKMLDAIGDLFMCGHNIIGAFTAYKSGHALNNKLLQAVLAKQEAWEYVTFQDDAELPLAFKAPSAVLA

SMILES | activity at 4 µg/mL [1] | activity at 8 µg/mL [1] | activity at 16 µg/mL [1] | IC50 [2] | MIC [3, 6] | MIC [4, 6] | MIC [5, 6] | MIC [3] | MIC [4] | MIC [5]
COCCNC(=O)C(Cc1ccc(C#Cc2ccc(CN3CCOCC3)cc2)cc1)c1nc[nH]c(=O)c1O (stereo not shown) [Compound 153, 2-(5-hydroxy-6-oxo-1,6-dihydropyrimidin-4-yl)-N-(2-methoxyethyl)-3-(4-((4-(morpholinomethyl)phenyl)ethynyl)phenyl) propanamide] | > 80% | 50 to 80% | < 20% | 10 to 50 nM | – | – | – | – | – | –
O=C(NCC(F)(F)F)C(Cc1ccc(C#Cc2ccc(CN3CCOCC3)cc2)cc1)c1nc[nH]c(=O)c1O (stereo not shown) [Compound 2, 2-(5-hydroxy-6-oxo-1,6-dihydropyrimidin-4-yl)-3-(4-((4-(morpholinomethyl)phenyl)ethynyl)phenyl)-N-(2,2,2-trifluoroethyl) propanamide] | < 20% | < 20% | < 20% | 10 to 50 nM | < 1 µg/mL | 1 to 8 µg/mL (≈ 1.85 to 14.8 µM) | > 32 µg/mL | – | – | –
O=c1[nH]cnc(C(CNCC(F)F)Cc2ccc(C#Cc3ccc(CN4CCOCC4)cc3)cc2)c1O (stereo not shown) [Compound 57, 6-(1-((2,2-difluoroethyl)amino)-3-(4-((4-(morpholinomethyl)phenyl)ethynyl)phenyl)propan-2-yl)-5-hydroxypyrimidin-4(3H)-one] | > 80% | 50 to 80% | 20 to 50% | 100 to 1000 nM | – | – | – | – | – | –
O=c1[nH]cnc(CCc2ccc(C#Cc3ccc(CNC4CCOCC4)cc3)cc2)c1O [Compound 244, 5-hydroxy-6-(4-((4-(((tetrahydro-2H-pyran-4-yl)amino)methyl)phenyl)ethynyl)phenethyl)pyrimidin-4(3H)-one] | – | – | – | 100 to 1000 nM | < 1 µg/mL | < 1 µg/mL | > 32 µg/mL | – | – | –
O=c1[nH]cnc(C(CNCc2cccnc2)Cc2ccc(C#Cc3ccc(CN4CCOCC4)cc3)cc2)c1O (stereo not shown) [Compound 250, 5-hydroxy-6-(1-(4-((4-(morpholinomethyl)phenyl)ethynyl)phenyl)-3-((pyridin-3-ylmethyl)amino)propan-2-yl)pyrimidin-4(3H)-one] | – | – | – | < 10 nM | < 1 µg/mL | > 32 µg/mL | – | – | – | –
CO[C@@H]1CCN(Cc2ccc(C#Cc3ccc(CC(C(=O)NCC(F)F)c4nc[nH]c(=O)c4O)cc3)cc2)C1 (stereo partly drawn) [Compound 106, N-(2,2-difluoroethyl)-2-(5-hydroxy-6-oxo-1,6-dihydropyrimidin-4-yl)-3-(4-((4-(((R)-3-methoxypyrrolidin-1-yl)methyl)phenyl)ethynyl)phenyl) propanamide] | 50 to 80% | 50 to 80% | 20 to 50% | 100 to 1000 nM | – | – | – | – | – | –
O=C(NCC(Cc1ccc(C#Cc2ccc(CN3CCOCC3)cc2)cc1)c1nc[nH]c(=O)c1O)C(F)F (stereo not shown) [Compound 15, 2,2-difluoro-N-(2-(5-hydroxy-6-oxo-1,6-dihydropyrimidin-4-yl)-3-(4-((4-(morpholinomethyl)phenyl)ethynyl)phenyl)propyl)acetamide] | 50 to 80% | 50 to 80% | < 20% | 10 to 50 nM | < 1 µg/mL | 1 to 8 µg/mL (≈ 1.91 to 15.3 µM) | > 32 µg/mL | – | – | –
O=C(NCCF)C(Cc1ccc(C#Cc2ccc(CN3CCOCC3)cc2)cc1)c1nc[nH]c(=O)c1O (stereo not shown) [Compound 3, N-(2-fluoroethyl)-2-(5-hydroxy-6-oxo-1,6-dihydropyrimidin-4-yl)-3-(4-((4-(morpholinomethyl)phenyl)ethynyl)phenyl) propanamide] | 50 to 80% | 20 to 50% | 20 to 50% | 10 to 50 nM | < 1 µg/mL | 1 to 8 µg/mL (≈ 1.98 to 15.9 µM) | > 32 µg/mL | – | – | –
O=c1[nH]cnc(C(CNCCF)Cc2ccc(C#Cc3ccc(CO)cc3)cc2)c1O (stereo not shown) [Compound 195, 6-(1-((2-fluoroethyl)amino)-3-(4-((4-(hydroxymethyl)phenyl)ethynyl)phenyl)propan-2-yl)-5-hydroxypyrimidin-4(3H)-one] | 50 to 80% | < 20% | < 20% | 100 to 1000 nM | – | – | – | – | – | –
O=c1[nH]cnc(CCc2ccc(C#Cc3ccc(CN4CCOCC4)cc3)c(F)c2)c1O [Compound 98, 6-(3-fluoro-4-((4-(morpholinomethyl)phenyl)ethynyl)phenethyl)-5-hydroxypyrimidin-4(3H)-one] | – | – | – | < 10 nM | – | – | – | – | – | –
O=C1CCCN1Cc1ccc(C#Cc2ccc(CC(CNCCF)c3nc[nH]c(=O)c3O)cc2)cc1 (stereo not shown) [Compound 55, 6-(1-((2-fluoroethyl)amino)-3-(4-((4-((2-oxopyrrolidin-1-yl)methyl)phenyl)ethynyl)phenyl)propan-2-yl)-5-hydroxypyrimidin-4(3H)-one] | > 80% | 20 to 50% | 20 to 50% | 10 to 50 nM | – | – | – | – | – | –
O=C(CF)NCC(Cc1ccc(C#Cc2ccc(CN3CCOCC3)cc2)cc1)c1nc[nH]c(=O)c1O (stereo not shown) [Compound 12, 2-fluoro-N-(2-(5-hydroxy-6-oxo-1,6-dihydropyrimidin-4-yl)-3-(4-((4-(morpholinomethyl)phenyl)ethynyl)phenyl)propyl) acetamide] | – | – | – | 10 to 50 nM | – | – | – | < 1 µg/mL | 1 to 8 µg/mL (≈ 1.98 to 15.9 µM) | > 32 µg/mL
O=c1[nH]cnc(CCc2ccc(C#Cc3ccc(CNC4CC(O)C4)cc3)cc2)c1O (stereo not shown) [Compound 243, 5-hydroxy-6-(4-((4-(((3-hydroxycyclobutyl)amino)methyl)phenyl)ethynyl)phenethyl)pyrimidin-4(3H)-one] | – | – | – | 10 to 50 nM | – | – | – | – | – | –
C[C@@H]1CN(Cc2ccc(C#Cc3ccc(CC(CNCCF)c4nc[nH]c(=O)c4O)cc3)cc2)C[C@@H](C)O1 (stereo partly drawn) [Compound 218, 6-(1-(4-((4-(((2R,6R)-2,6-dimethylmorpholino)methyl)phenyl)ethynyl)phenyl)-3-((2-fluoroethyl)amino)propan-2-yl)-5-hydroxypyrimidin-4(3H)-one] | – | – | – | 100 to 1000 nM | – | – | – | – | – | –
O=c1[nH]cnc(CCc2ccc(C#Cc3cccc(Cl)c3)cc2)c1O [Compound 248, 6-(4-((3-chlorophenyl)ethynyl)phenethyl)-5-hydroxypyrimidin-4(3H)-one] | – | – | – | 100 to 1000 nM | > 32 µg/mL | > 32 µg/mL | – | – | – | –
N#CC1CN(Cc2ccc(C#Cc3ccc(CC(C(=O)NCCF)c4nc[nH]c(=O)c4O)cc3)cc2)C1 (stereo not shown) [Compound 165, 3-(4-((4-((3-cyanoazetidin-1-yl)methyl)phenyl)ethynyl)phenyl)-N-(2-fluoroethyl)-2-(5-hydroxy-6-oxo-1,6-dihydropyrimidin-4-yl)propanamide] | – | – | – | < 10 nM | – | – | – | – | – | –
O=C(NCC(F)F)C(Cc1ccc(C#Cc2ccc(CN3CCOCC3)cc2)cc1)c1nc[nH]c(=O)c1O (stereo not shown) [Compound 1, N-(2,2-difluoroethyl)-2-(5-hydroxy-6-oxo-1,6-dihydropyrimidin-4-yl)-3-(4-((4-(morpholinomethyl)phenyl)ethynyl)phenyl) propanamide] | < 20% | < 20% | < 20% | < 10 nM | < 1 µg/mL | 1 to 8 µg/mL (≈ 1.91 to 15.3 µM) | > 32 µg/mL | – | – | –
O=c1[nH]cnc(C(CNCCF)Cc2ccc(C#Cc3ccc(CN4CC5CCC(C4)O5)cc3)cc2)c1O (stereo not shown) [Compound 215, 6-(1-(4-((4-((8-oxa-3-azabicyclo[3.2.1]octan-3-yl)methyl)phenyl)ethynyl)phenyl)-3-((2-fluoroethyl)amino)propan-2-yl)-5-hydroxypyrimidin-4(3H)-one] | 20 to 50% | 20 to 50% | < 20% | 100 to 1000 nM | – | – | – | – | – | –
